Measurements: patent US20240000950A1, “THERAPEUTIC CURE-PRO COMPOUNDS FOR TARGETED DEGRADATION OF BET DOMAIN PROTEINS, AND METHODS OF MAKING AND USING THEM” (CORNELL UNIVERSITY, priority 2020, published 2024)

How the values were obtained:
[1] = system: SLC19A1; assay: Suppression of the c-MYC downstream target gene SLC19A1, RT-PCR in HeLa cells; type: cell-based, Human; conditions: 24 h, 10 μM, single agent
Method: The suppression of the expression of the downstream c-MYC target, SLC19A1, was measured by RT-PCR using Power SYBR® Green Cells-to-Ct™ Kit (Life Technologies). Adherent cells were plated on 96 well plates at 5,000 cells per well were treated for 24 h with monomer compounds and compounds capable of reversible interactions (1 nM-100 μM). Cells were subsequently washed in ice-cold PBS processed according to the manufacturer's instructions. Quantitative real-time PCR was performed using a ViiA™ 7 Real-time PCR System (Applied Biosystems, Foster City, CA, USA). GAPDH and ACTB served as internal controls. The primers used were (5′-3′): GAPDH-F: AGCCACATCGCTCAGACAC (SEQ ID NO:9), GAPDH-R: GCCCAATACGACCAAATCC (SEQ ID NO:10), ACTB-F: CCAACCGCGAGAAGATGA (SEQ ID NO:11), ACTB-R: […] (SEQ ID NO:12), SLC19A1-F: […] (SEQ ID NO:13), SLC19A1-R: […] (SEQ ID NO:14).
HeLa cells (1×104) were treated for 24 hours in 96 well plates with the compounds solubilized in DMSO. Compounds were added at 10 μM each and RNA expression measured by the Cells-to Ct method described above (Thermofisher).

[2] = target: T1, BRD4 (Homo sapiens, UniProt O60885); assay: Summary of E3 ligase directed degradation of BRD4, estimated from Western Blot or WES (Tables 1-6); type: cell-based; parameters: endogenous in cells; host or cells: HeLa, MCF7 or HCT116; conditions: for Degradation of BRD4, combination with CRBN ligand [drawing 421]: CRBN ligand drawn as drawing 421 (by the text apparently 8047); for Degradation of BRD4, combination with CRBN ligand [drawing 422]: CRBN ligand drawn as drawing 422 (by the text apparently 8066)
In short: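 HeLa, MCF7 or HCT116 cells treated 24 h with compounds in DMSO, lysed in RIPA buffer; BRD4 levels read by Western blot (ECL detection) or capillary WES with HRP detection. Check mark denotes 30% to 70% or higher protein degradation.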

[3] = target: T1, BRD4; assay: CURE-PRO-mediated BRD4 degradation in HeLa cells, Western blot; type: cell-based; parameters: endogenous in cells; host or cells: HeLa; conditions: 24 h; for BRD4 degradation: BRD ligand (monomer) alone
Method: (§1) All cell lines were purchased from ATCC or DSMZ and grown at 37° C. with 5% C02. Human HeLa cells were cultured in complete growth medium (Dulbecco's modified Eagle's medium (DMEM) supplemented with 10% FBS); MCF7 cells were cultured in complete growth medium (Dulbecco's modified Eagle's medium (DMEM) supplemented with 10% FBS and 0.01 mg/ml human recombinant insulin (Sigma Aldrich); Namalwa and MOLM-13 cells were cultured in complete growth medium (RPMI 1640 medium supplemented with 10% FBS); MV-4-11 were cultured in complete growth medium (Iscove's Modified Dulbecco's medium, supplemented with 10% FBS); HCT116 cells were cultured in complete growth medium (McCoy's 5a Medium supplemented with 10% FBS). For cellular degradation of BRD4 studies, cells were seeded in a 12-well plate at 70-80% confluency, allowed to attach overnight, and incubated with the indicated compounds for the indicated time. When indicated, a 15-minute pretreatment with 10 μM pomalidomide, 10 μM VHL298, 10 μM Nutlin3a, 1 μM MG-132 or 1 μM Carfilzomib was performed before the addition of CURE-PROs. For washout studies, after CURE-PRO treatment, media was aspirated and incubated with complete medium for the indicated time before lysis.
(§2) Anti-BRD4 (13440, 1:1,000 dilution for Western Blot and 1:25 dilution for ProteinSimple); Anti-BRD2 (5848 1:1,000 dilution for Western Blot and 1:25 dilution for ProteinSimple); β-Actin (3700, 1:2,000 dilution for Western Blot), β-Actin (4970, 1:50 dilution for ProteinSimple) anti-mouse IgG-HRP, and anti-rabbit IgG-HRP antibodies were purchased Cell Signaling Technology. Anti-GAPDH (600-401-A33, 1:100 dilution for ProteinSimple) was purchased from Rockland Immunochemicals, Inc. Anti-BRD3 (sc-81202, 1:200 dilution for Western Blot) was purchased from Santa Cruz Biotechnology.
HeLa, MCF7, or HCT116 cells (2.5-3×10^6) were treated for 24 hours with the indicated compounds solubilized in DMSO. The cells were washed in ice-cold PBS and were then lysed in RIPA lysis buffer (150 mM NaCl, 5 mM EDTA, 1% NP-40, 0.5% sodium deoxycholate, 0.1% SDS, 50 mM Tris, pH 8.0) with Roche protease inhibitor complete cocktail and phosphatase inhibitors (10 mM sodium fluoride, 10 mM sodium pyrophosphate, 1 mM sodium orthovanadate and 20 mM β-glycerophosphate). The total protein concentrations were determined by Bradford Protein Assay and 10-20 μg of protein was loaded onto 4-15% Tris-Glycine gradient gels (Biorad). After standard gel electrophoresis, the separated proteins were transferred to PVDF membrane by wet transfer. The immunoblots were then blocked for 1 hour in 5% skim milk in TBST or 5% BSA in TBST, according to manufacturer's instructions, before an overnight incubation at 4° C. with indicated antibodies and membranes. Membranes were then incubated with the appropriate horseradish peroxidase-conjugated secondary antibodies (1:5,000 dilution) for 1 h at room temperature and the bands were visualized using the Clarity Max Western ECL Substrate (Biorad) and the ChemiDoc Imaging System (Biorad). Signal was detected with ECL Western Blotting Substrate (Pierce) and X-ray film processed with a Konica SRX-101 X-ray film processor or captured by Bio-Rad's Chemidoc Imaging system.
HeLa cells (2.5×10^6) were treated for 24 hours with the sample compounds solubilized in DMSO. Compounds were added at 1-10 μM each. Standardized protein samples were electrophoresed and imaged as described in the immunoblotting description above. FIGS. 6-18 depicts the CURE-PRO-mediated BRD4 degradation for BRD monomers (JQ1 derivatives comprising of catechol linkers), and CRBN ligands, 8048 and 8049 (pomalidomide derivatives comprising boronic acid linkers) combined in a 1:1 ratio.
HeLa cells (2.5×10^6) were treated for 24 hours with the compounds solubilized in DMSO. The compounds were added at 10 μM each. Standardized protein samples were electrophoresed and imaged as described in the immunoblotting section above. […]

[4] = target: T1, BRD4; assay: CURE-PRO-mediated BRD4 degradation in HeLa cells, WES capillary electrophoresis (ProteinSimple); type: cell-based; parameters: endogenous in cells; host or cells: HeLa; conditions: for BRD4 degradation: 24 h, co-dosed with CRBN ligand 8047, 100 nM-10 μM each
Method: as §1, §2
WES Simple analysis was performed on WES system (ProteinSimple-Biotechne) according to the manufacturer's instructions. Total protein concentrations of cell lysates were determined by the Pierce BCA kit (Thermo Fisher). 3 μL of 0.3 μg/uL of the protein lysate was loaded onto a 12- to 230-kDa WES assay plate (ProteinSimple) where 300 nL sample was withdrawn through a capillary, subjected to electrophoretic separation of proteins by size, and followed by the simultaneous, HRP-based detection of proteins using the Anti-Rabbit Detection Module (Proteinsimple: #DM-001). The electropherograms were checked then the automatic peak detection was manually corrected if it was required.
HeLa cells (2.5×10^6) were treated for 4-24 hours with the compounds solubilized in DMSO. After 4 hours, indicated points were washed and cells were left in full growth media. Compounds were added at 10 μM each. […]

| Compound | Degradation of BRD4, combination with CRBN ligand [drawing 421] ([2]; Table 1) | Degradation of BRD4, combination with CRBN ligand [drawing 422] ([2]; Table 1) | BRD4 degradation [3] | BRD4 degradation [4] | also measured |
| --- | --- | --- | --- | --- | --- |
| Cc1sc2c(c1C)C(c1ccc(Cl)cc1)=N[C@@H](CC(=O)Nc1ccc(OCCOCCOCCOCCNc3cccc4c3C(=O)N(C3CCC(=O)NC3=O)C4=O)cc1)c1nnc(C)n1-2 (stereo partly shown) [ARV-825, reference compound] |  |  |  |  | suppression of SLC19A1 expression [1]: Complete suppression of SLC19A1 was evident |
| COc1ccc2c(c1)C(c1ccc(Cl)cc1)=N[C@@H](CC(=O)NCCNC(=O)/C=C/c1cccc(B(O)O)c1)c1nnc(C)n1-2 [BRD-E30, (3-((E)-3-((2-(2-((4S)-6-(4-chlorophenyl)-8-methoxy-1-methyl-4H-benzo[f][1,2,4]triazolo[4,3-a][1,4]diazepin-4-yl)acetamido)ethyl)amino)-3-oxoprop-1-en-1-yl)phenyl)boronic acid] | ✓ (A black check mark indicates efficacy of 30% to 70% or higher protein degradation) | ✓ (A black check mark indicates efficacy of 30% to 70% or higher protein degradation) | no change in expression is observed |  |  |
| CCNC(=O)C[C@@H]1N=C(c2ccc(Sc3cccc(B(O)O)c3)cc2)c2cc(OC)ccc2-n2c(C)nnc21 [BRD-E52, (3-((4-((4S)-4-(2-(ethylamino)-2-oxoethyl)-8-methoxy-1-methyl-4H-benzo[f][1,2,4]triazolo[4,3-a][1,4]diazepin-6-yl)phenyl)thio)phenyl)boronic acid] | ✓ (A black check mark indicates efficacy of 30% to 70% or higher protein degradation) | ✓ (A black check mark indicates efficacy of 30% to 70% or higher protein degradation) |  | marked BRD4 degradation | BRD4 degradation, time dependence and washout ([4]; 4-24 h, 10 μM each, co-dosed with CRBN ligand 8047, washed after 4 h): marked BRD4 degradation after 4 h with sustained degradation for up to 8 h after drugs are washed out; BRD4 degradation with pomalidomide and the BRD ligand (no 8047) ([3]; 10 μM): failed to induce BRD4 degradation; BRD4 degradation after preincubation with pomalidomide ([3]; 10 μM, 1:1 with CRBN ligand 8047, pomalidomide preincubated 15 min at equimolar concentration): inhibition of CURE-PRO-mediated BRD4 degradation |
| CCNC(=O)C[C@@H]1N=C(c2ccc(Sc3ccccc3)cc2)c2cc(OC)ccc2-n2c(C)nnc21 [BRD-E52C, N-ethyl-2-((4S)-8-methoxy-1-methyl-6-(4-(phenylthio)phenyl)-4H-benzo[f][1,2,4]triazolo[4,3-a][1,4]diazepin-4-yl)acetamide] |  |  |  | failed to induce degradation even at 10 μM |  |
| CCNC(=O)C[C@@H]1N=C(c2ccc(Cl)cc2)c2cc(OCCCCCCNC(=O)c3ccc(B(O)O)cc3)ccc2-n2c(C)nnc21 [BRD-E79, (4-((6-(((4S)-6-(4-chlorophenyl)-4-(2-(ethylamino)-2-oxoethyl)-1-methyl-4H-benzo[f][1,2,4]triazolo[4,3-a][1,4]diazepin-8-yl)oxy)hexyl)carbamoyl)phenyl)boronic acid] | ✓ (A black check mark indicates efficacy of 30% to 70% or higher protein degradation) | ✓ (A black check mark indicates efficacy of 30% to 70% or higher protein degradation) | no change in expression is observed |  | Degradation of BRD4, combination with CRBN ligand [drawing 397] ([2]; Table 1, aromatic 1,2-diol- or hindered cis-1,2-diol-containing CRBN ligand drawn as drawing 397 (by the text apparently 8046)): ✓ (A black check mark indicates efficacy of 30% to 70% or higher protein degradation); Degradation of BRD4, combination with MDM2 ligand [drawing 430] ([2]; Table 2, aromatic 1,2-diol-containing MDM2 ligand drawn as drawing 430 (by the text apparently 8313)): ✓ (A black check mark indicates efficacy of 30% to 70% or higher protein degradation) |
